Test results: the OPERA property sets (Mansouri et al. 2018)

SMILES | logP
Brc1cccc(-c2cnc(SCCc3c[nH]cn3)[nH]2)c1 | 3.76
c1ccc(-c2cnc(SCCc3c[nH]cn3)[nH]2)cc1 | 2.62
NC(=O)c1cccc(-c2cnc(SCCc3c[nH]cn3)[nH]2)c1 | 1.61
Clc1ccc(-c2cnc(SCCc3c[nH]cn3)[nH]2)cc1 | 3.66
O=[N+]([O-])c1cccc(-c2cnc(SCCc3c[nH]cn3)[nH]2)c1 | 2.43
CCCc1cccc(-c2cnc(SCCc3c[nH]cn3)[nH]2)c1 | 3.7

The remaining lines, values ahead:

logP | SMILES
2.75 | O=[N+]([O-])c1ccc(-c2cnc(SCCc3c[nH]cn3)[nH]2)cc1
4.09 | CCCc1ccc(-c2cnc(SCCc3c[nH]cn3)[nH]2)cc1
4.11 | CCCCOc1ccc(-c2cnc(SCCc3c[nH]cn3)[nH]2)cc1
3.72 | O=S(=O)(Oc1ccc(-c2cnc(SCCc3c[nH]cn3)[nH]2)cc1)c1ccccc1
1.4 | NC(=O)c1ccc(-c2cnc(SCCc3c[nH]cn3)[nH]2)cc1
